Results published in patent US8940769B2, “Biaryl benzoimidazole derivatives and pharmaceutical composition comprising the same” (Daewoong Pharmaceutical Co., Ltd., priority 2006, dated 2015).

What follows are compounds tested against T1, human vanilloid receptor VR-1 (hVR1) (Homo sapiens, UniProt Q8NER1) (assay: Calcium influx test of vanilloid receptor (capsaicin-induced, Fluo-3/AM, hVR1-HEK293 cells)). Conditions: calcium influx induced by 1 μM capsaicin, read-out: Inhibitory effect IC50 (nM) on calcium influx.
T1 construct: expressed in transfected cells; host or cells: HEK293 Tet-on cells (hVR1-HEK293), expression induced with doxycycline
T1 sequence (Q8NER1 whole entry): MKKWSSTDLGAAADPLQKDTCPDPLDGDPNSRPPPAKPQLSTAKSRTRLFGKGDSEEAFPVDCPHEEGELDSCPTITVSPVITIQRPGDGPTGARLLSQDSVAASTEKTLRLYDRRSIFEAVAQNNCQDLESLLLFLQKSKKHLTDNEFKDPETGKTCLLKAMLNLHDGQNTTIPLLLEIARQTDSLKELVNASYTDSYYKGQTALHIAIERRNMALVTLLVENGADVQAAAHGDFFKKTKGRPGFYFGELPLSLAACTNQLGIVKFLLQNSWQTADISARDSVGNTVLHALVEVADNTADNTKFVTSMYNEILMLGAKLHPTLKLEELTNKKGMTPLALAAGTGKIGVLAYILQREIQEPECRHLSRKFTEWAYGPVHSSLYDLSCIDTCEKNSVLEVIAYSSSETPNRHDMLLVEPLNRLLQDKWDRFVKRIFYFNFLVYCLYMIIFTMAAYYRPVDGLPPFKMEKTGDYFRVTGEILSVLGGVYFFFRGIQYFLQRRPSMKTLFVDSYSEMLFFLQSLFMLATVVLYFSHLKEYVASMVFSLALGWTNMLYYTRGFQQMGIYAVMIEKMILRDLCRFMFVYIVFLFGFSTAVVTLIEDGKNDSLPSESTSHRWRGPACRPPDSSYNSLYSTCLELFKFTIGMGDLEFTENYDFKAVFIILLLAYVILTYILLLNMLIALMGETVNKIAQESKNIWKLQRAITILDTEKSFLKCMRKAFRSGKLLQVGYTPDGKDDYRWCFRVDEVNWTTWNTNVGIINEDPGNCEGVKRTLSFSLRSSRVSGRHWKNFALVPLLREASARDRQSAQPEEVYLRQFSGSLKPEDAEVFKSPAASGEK
Format: cell-based
Experimental: In order to measure an activity of the biaryl benzoimidazole derivative of the invention as an antagonist, a calcium influx test was performed.
An hVR1-HEK293 cell line is a cell line, in which a Human Embryonic Kidney (HEK) 293 Tet-on cell is transformed with a human vanilloid-1 gene (pTRE2hyg-hVR1, 7.8 kb). The cell line can regulate a VR-1 expression, depending on the administration of a tetracycline analogue, doxycycline. At two days before the calcium influx test, the cell line was cultured in media containing doxycycline to induce the VR-1 expression, and then used. First, the hVR1-HEK293 cells were cultured in T75 flasks to have a density of about 80%, and then detached from the bottom of the flasks by using trypsin. The detached cells were centrifuged and collected. Then, the cells were suspended in media containing 1 μg/mL doxycycline, and diluted to have a concentration of 2×10^5 to 4×10^5 cells/mL. 100 μL of the suspended cells were added to each well of 96-well black plate, cultured at 37° C. and 5% CO2 cell incubator for two days, and then used in the calcium influx test.
The compound was dissolved in dimethyl sulfoxide (DMSO), and then used for the calcium influx test.
In order to measure the calcium influx […], the cells were cultured in a solution containing Fluo-3/AM, which is a calcium indicator, at 37° C. for 90 minutes, so as to be permeated by a fluorescent dye. […] 193 μL D-PBS were added to each well, and then the compound was added thereto in various concentrations. To measure an activity as an antagonist, the cells were treated with 1 μM capsaicin to stimulate the calcium influx. The inhibitory effect of the compound when calcium influx was induced by 1 μM capsaicin was measured depending on its concentration using a fluorescence spectrometer, and the obtained data were substituted into a hill equation to analyze the values.
The inhibitory effect on calcium influx was measured with a single concentration of the compounds of the invention (200 nM), and the result thereof are shown in Table 2.

**Q.** Which IC50 does the source give for COC(=O)c1cnc(-c2ccc(-c3nc4ccc(C(C)(C)C)cc4[nH]3)nc2)c(Cl)c1 [Compound 74, 6′-(6-tert-butyl-1H-benzoimidazol-2-yl)-3-chloro-[2,3′]bipyridinyl-5-carboxylic acid methyl ester] here?
**A.** 26.2 nM

**Q.** For OCc1cnc(-c2ccc(-c3nc4ccc(C(F)(F)F)cc4[nH]3)nc2)c(Cl)c1 [Compound 89, [3-chloro-6′-(6-trifluoromethyl-1H-benzoimidazol-2-yl)-[2,3′]bipyridinyl-5-yl]-methanol], which IC50 is on record?
**A.** 338 nM

**Q.** CC(C)(C)c1ccc2nc(-c3ccc(-c4ncc(CO)cc4Cl)cn3)[nH]c2c1 [Compound 90, [6′-(6-tert-butyl-1H-benzoimidazol-2-yl)-3-chloro-[2,3′]bipyridinyl-5-yl]-methanol] was tested. Which IC50 did it give?
**A.** 158 nM

**Q.** How did the IC50 turn out when OCc1cnc(-c2ccc(-c3nc4ccc(Br)cc4[nH]3)nc2)c(Cl)c1 [Compound 91, [6′-(6-bromo-1H-benzoimidazol-2-yl)-3-chloro-[2,3′]bipyridinyl-5-yl]-methanol] was run?
**A.** 517 nM

**Q.** With OCc1cnc(-c2ccc(-c3nc4c(Br)cc(C(F)(F)F)cc4[nH]3)nc2)c(Cl)c1 [Compound 93, [6′-(4-bromo-6-trifluoromethyl-1H-benzoimidazol-2-yl)-3-chloro-[2,3′]bipyridinyl-5-yl]-methanol] as the compound, how does the IC50 read?
**A.** 129 nM

Same assay, conditions: single concentration of compound 200 nM, 1 μM capsaicin, read-out: Inhibitory effect (%) on calcium influx

**Q.** With CCNC(=O)c1cnc(-c2ccc(-c3nc4c(Br)cc(C(F)(F)F)cc4[nH]3)cc2)c(Cl)c1 [Compound 65, 6-[4-(4-bromo-6-trifluoromethyl-1H-benzoimidazol-2-yl)-phenyl]-5-chloro-N-ethyl-nicotinamide] as the compound, how does the inhibition at 0.2 µM read?
**A.** 30.9%

**Q.** C=Cc1cnc(-c2ccc(-c3nc4ccc(C(F)(F)F)cc4[nH]3)nc2)c(Cl)c1 [Compound 66, 3-chloro-6′-(6-trifluoromethyl-1H-benzoimidazol-2-yl)-5-vinyl-[2,3′]bipyridinyl] was tested. Which inhibition at 0.2 µM did it give?
**A.** 0.2%

**Q.** Which inhibition at 0.2 µM does the source give for C=Cc1cnc(-c2ccc(-c3nc4ccc(C(C)(C)C)cc4[nH]3)nc2)c(Cl)c1 [Compound 67, 6′-(6-tert-butyl-1H-benzoimidazol-2-yl)-3-chloro-5-vinyl-[2,3′]bipyridinyl] here?
**A.** -8.8%

**Q.** With C=Cc1cnc(-c2ccc(-c3nc4ccc(Br)cc4[nH]3)nc2)c(Cl)c1 [Compound 68, 6′-(6-bromo-1H-benzoimidazol-2-yl)-3-chloro-5-vinyl-[2,3′]bipyridinyl] as the compound, how does the inhibition at 0.2 µM read?
**A.** -2.2%

**Q.** C=Cc1cnc(-c2ccc(-c3nc4ccc(Cl)cc4[nH]3)nc2)c(Cl)c1 [Compound 69, 3-chloro-6′-(6-chloro-1H-benzoimidazol-2-yl)-5-vinyl-[2,3′]bipyridinyl] was tested. Which inhibition at 0.2 µM did it give?
**A.** 11.3%

**Q.** Which inhibition at 0.2 µM does the source give for C=Cc1cnc(-c2ccc(-c3nc4c(Br)cc(C(F)(F)F)cc4[nH]3)nc2)c(Cl)c1 [Compound 70, 6′-(4-bromo-6-trifluoromethyl-1H-benzoimidazol-2-yl)-3-chloro-5-vinyl-[2,3′]bipyridinyl] here?
**A.** 0%

**Q.** How did the inhibition at 0.2 µM turn out when COC(=O)c1cnc(-c2ccc(-c3nc4ccc(N5CCOCC5)cc4[nH]3)nc2)c(Cl)c1 [Compound 71, 3-chloro-6′-(6-morpholin-4-yl-1H-benzoimidazol-2-yl)-[2,3′]bipyridinyl-5-carboxylic acid methyl ester] was run?
**A.** 7.1%

**Q.** For COC(=O)c1cnc(-c2ccc(-c3nc4ccc(C(C)(C)C)cc4[nH]3)nc2)c(Cl)c1 [Compound 74, 6′-(6-tert-butyl-1H-benzoimidazol-2-yl)-3-chloro-[2,3′]bipyridinyl-5-carboxylic acid methyl ester], which inhibition at 0.2 µM is on record?
**A.** 81.3%

**Q.** With COC(=O)c1cnc(-c2ccc(-c3nc4ccc(Br)cc4[nH]3)nc2)c(Cl)c1 [Compound 75, 6′-(6-bromo-1H-benzoimidazol-2-yl)-3-chloro-[2,3′]bipyridinyl-5-carboxylic acid methyl ester] as the compound, how does the inhibition at 0.2 µM read?
**A.** 45.3%

**Q.** COC(=O)c1cnc(-c2ccc(-c3nc4ncc(Br)cc4[nH]3)nc2)c(Cl)c1 [Compound 76, 6′-(6-bromo-1H-imidazo[4,5-b]pyridin-2-yl)-3-chloro-[2,3′]bipyridinyl-5-carboxylic acid methyl ester] was tested. Which inhibition at 0.2 µM did it give?
**A.** 7%

**Q.** For COC(=O)c1cnc(-c2ccc(-c3nc4c(Br)cc(C(F)(F)F)cc4[nH]3)nc2)c(Cl)c1 [Compound 77, 6′-(4-bromo-6-trifluoromethyl-1H-benzoimidazol-2-yl)-3-chloro-[2,3′]bipyridinyl-5-carboxylic acid methyl ester], which inhibition at 0.2 µM is on record?
**A.** 48.9%

**Q.** For COC(=O)c1cnc(-c2ccc(-c3nc4c(Br)cc(Br)cc4[nH]3)nc2)c(Cl)c1 [Compound 78, 3-chloro-6′-(4,6-dibromo-1H-benzoimidazol-2-yl)-[2,3′]bipyridinyl-5-carboxylic acid methyl ester], which inhibition at 0.2 µM is on record?
**A.** 4.1%

**Q.** O=C(O)c1cnc(-c2ccc(-c3nc4ccc(N5CCOCC5)cc4[nH]3)nc2)c(Cl)c1 [Compound 79, 3-chloro-6′-(6-morpholin-4-yl-1H-benzoimidazol-2-yl)-[2,3′]bipyridinyl-5-carboxylic acid] was tested. Which inhibition at 0.2 µM did it give?
**A.** 3.3%

**Q.** Which inhibition at 0.2 µM does the source give for CN1CCN(c2ccc3nc(-c4ccc(-c5ncc(C(=O)O)cc5Cl)cn4)[nH]c3c2)CC1 [Compound 80, 3-chloro-6′-[6-(4-methyl-piperazin-1-yl)-1H-benzoimidazol-2-yl]-[2,3′]bipyridinyl-5-carboxylic acid] here?
**A.** -5%

**Q.** With O=C(O)c1cnc(-c2ccc(-c3nc4ccc(C(F)(F)F)cc4[nH]3)nc2)c(Cl)c1 [Compound 81, 3-chloro-6′-(6-trifluoromethyl-1H-benzoimidazol-2-yl)-[2,3′]bipyridinyl-5-carboxylic acid] as the compound, how does the inhibition at 0.2 µM read?
**A.** 9.6%

**Q.** How did the inhibition at 0.2 µM turn out when CC(C)(C)c1ccc2nc(-c3ccc(-c4ncc(C(=O)O)cc4Cl)cn3)[nH]c2c1 [Compound 82, 6′-(6-tert-butyl-1H-benzoimidazol-2-yl)-3-chloro-[2,3′]bipyridinyl-5-carboxylic acid] was run?
**A.** 6.7%

**Q.** How did the inhibition at 0.2 µM turn out when O=C(O)c1cnc(-c2ccc(-c3nc4ccc(Br)cc4[nH]3)nc2)c(Cl)c1 [Compound 83, 6′-(6-bromo-1H-benzoimidazol-2-yl)-3-chloro-[2,3′]bipyridinyl-5-carboxylic acid] was run?
**A.** 22.8%

**Q.** Which inhibition at 0.2 µM does the source give for O=C(O)c1cnc(-c2ccc(-c3nc4ncc(Br)cc4[nH]3)nc2)c(Cl)c1 [Compound 84, 6′-(6-bromo-1H-imidazo[4,5-b]pyridin-2-yl)-3-chloro-[2,3′]bipyridinyl-5-carboxylic acid] here?
**A.** 6.3%

**Q.** Which inhibition at 0.2 µM does the source give for O=C(O)c1cnc(-c2ccc(-c3nc4c(Br)cc(C(F)(F)F)cc4[nH]3)nc2)c(Cl)c1 [Compound 85, 6′-(4-bromo-6-trifluoromethyl-1H-benzoimidazol-2-yl)-3-chloro-[2,3′]bipyridinyl-5-carboxylic acid] here?
**A.** 4.2%

**Q.** For OCc1cnc(-c2ccc(-c3nc4ccc(N5CCOCC5)cc4[nH]3)nc2)c(Cl)c1 [Compound 87, [3-chloro-6′-(6-morpholin-4-yl-1H-benzoimidazol-2-yl)-[2,3′]bipyridinyl-5-yl]-methanol], which inhibition at 0.2 µM is on record?
**A.** 3.7%

**Q.** How did the inhibition at 0.2 µM turn out when CN1CCN(c2ccc3nc(-c4ccc(-c5ncc(CO)cc5Cl)cn4)[nH]c3c2)CC1 [Compound 88, {3-chloro-6′-[6-(4-methyl-piperazin-1-yl)-1H-benzoimidazol-2-yl]-[2,3′]bipyridinyl-5-yl}-methanol] was run?
**A.** 15.3%

**Q.** With OCc1cnc(-c2ccc(-c3nc4ccc(C(F)(F)F)cc4[nH]3)nc2)c(Cl)c1 [Compound 89, [3-chloro-6′-(6-trifluoromethyl-1H-benzoimidazol-2-yl)-[2,3′]bipyridinyl-5-yl]-methanol] as the compound, how does the inhibition at 0.2 µM read?
**A.** 30%

**Q.** With CC(C)(C)c1ccc2nc(-c3ccc(-c4ncc(CO)cc4Cl)cn3)[nH]c2c1 [Compound 90, [6′-(6-tert-butyl-1H-benzoimidazol-2-yl)-3-chloro-[2,3′]bipyridinyl-5-yl]-methanol] as the compound, how does the inhibition at 0.2 µM read?
**A.** 42.7%

**Q.** For OCc1cnc(-c2ccc(-c3nc4ccc(Br)cc4[nH]3)nc2)c(Cl)c1 [Compound 91, [6′-(6-bromo-1H-benzoimidazol-2-yl)-3-chloro-[2,3′]bipyridinyl-5-yl]-methanol], which inhibition at 0.2 µM is on record?
**A.** 27.6%

**Q.** OCc1cnc(-c2ccc(-c3nc4ncc(Br)cc4[nH]3)nc2)c(Cl)c1 [Compound 92, [6′-(6-bromo-1H-imidazo[4,5-b]pyridin-2-yl)-3-chloro-[2,3′]bipyridinyl-5-yl]-methanol] was tested. Which inhibition at 0.2 µM did it give?
**A.** 7.3%

**Q.** Which inhibition at 0.2 µM does the source give for OCc1cnc(-c2ccc(-c3nc4c(Br)cc(C(F)(F)F)cc4[nH]3)nc2)c(Cl)c1 [Compound 93, [6′-(4-bromo-6-trifluoromethyl-1H-benzoimidazol-2-yl)-3-chloro-[2,3′]bipyridinyl-5-yl]-methanol] here?
**A.** 41%
